Experimental data taken from patent US8431567B2 (Abbott GmbH & Co. KG, priority 2006, dated 2013).
pKi: −log10 of the molar value. Counter-ions that a name gives are not always drawn.

Biological target: T1, human vasopressin V1b receptor (Homo sapiens, UniProt P47901)
T1 construct: expressed in transfected cells; host or cells: CHO-K1 (cell line hV1b_3H2_CHO), membrane preparation
T1 sequence (P47901 1-424): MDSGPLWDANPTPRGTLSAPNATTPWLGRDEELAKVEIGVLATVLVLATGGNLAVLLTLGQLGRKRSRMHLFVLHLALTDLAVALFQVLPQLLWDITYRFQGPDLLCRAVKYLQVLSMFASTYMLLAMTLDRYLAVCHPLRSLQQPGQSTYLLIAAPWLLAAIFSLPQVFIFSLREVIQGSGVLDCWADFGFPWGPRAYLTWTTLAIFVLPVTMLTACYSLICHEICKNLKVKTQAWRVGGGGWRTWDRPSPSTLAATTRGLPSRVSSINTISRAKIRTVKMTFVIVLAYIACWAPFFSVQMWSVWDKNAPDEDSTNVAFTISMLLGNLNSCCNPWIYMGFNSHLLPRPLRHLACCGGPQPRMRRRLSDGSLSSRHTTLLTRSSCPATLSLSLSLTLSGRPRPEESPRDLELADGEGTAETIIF
Assay: Vasopressin V1b receptor binding test
Settings: membranes of CHO-K1 cells, displacement of 1.5 nM 3H-AVP
Procedure: • Vasopressin V1b Receptor Binding Test: • Substances:
The test substances were dissolved at a concentration of 10^−2 M in DMSO and diluted further in DMSO to 5×10^−4 M to 5×10^−9 M. These DMSO solutions were diluted 1:10 with test buffer. The concentration of substance was again diluted 1:5 in the test preparation.
The membrane pellet was homogenized and centrifuged again as described, and then taken up in 50 mM Tris-HCl, pH 7.4, homogenized and, frozen in aliquots, stored at −190° C. in liquid nitrogen.
The incubation buffer was: 50 mM Tris, 10 mM MgCl2, 0.1% BSA, pH 7.4. […] The nonspecific binding was determined with 1 μM AVP (Bachem #H1780). All determinations were performed in triplicate. After incubation (60 minutes at room temperature), the free radioligand was filtered off by vacuum filtration (Skatron cell harvester 7000) on Whatman GF/B glass-fibre filter mats and the filters were transferred to scintillation vessels. Liquid scintillation measurement was performed in a Tricarb instrument, Model 2000 or 2200CA (Packard). Conversion of the measured cpm to dpm was performed with the aid of a standard quench series.
The binding parameters were calculated by nonlinear regression in SAS.
For the compounds according to the invention, the affinities for the human vasopressin receptor V1b were measured according to the above test and the affinity constant (Ki) was determined.

Q: With `COc1ccc(S(=O)(=O)N2C(=O)C(c3ccccc3OC)(N3CCN(c4ccncc4)CC3)c3ccc(C)cc32)c(OC)c1` (centres unmarked) [Example 23, 1-(2,4-Dimethoxy-benzenesulphonyl)-3-(2-methoxyphenyl)-6-methyl-3-(4-pyridin-4-yl-piperazin-1-yl)-1,3-dihydro-indol-2-one] as the molecule, how does the pKi read?
A: Its pKi is 6.30 to 7.30.

Q: `COc1ccc(S(=O)(=O)N2C(=O)C(c3ccccc3Cl)(N3CCN(c4ccncc4)CC3)c3cc(Cl)ccc32)c(OC)c1` (centres unmarked) [Example 24, 5-Chloro-3-(2-chloro-phenyl)-1-(2,4-dimethoxy-benzenesulphonyl)-3-(4-pyridin-4-yl-piperazin-1-yl)-1,3-dihydro-indol-2-one] was tested. Which pKi did it give?
A: The pKi was > 7.30.

Q: How did the pKi turn out when `COc1ccc(S(=O)(=O)N2C(=O)C(c3cc(CN(C)C)ccc3OC)(N3CCN(c4ccncc4)CC3)c3cc(Cl)ccc32)c(OC)c1` (centres unmarked) [Example 25, 5-Chloro-1-(2,4-dimethoxy-benzenesulphonyl)-3-(5-dimethylaminomethyl-2-methoxyphenyl)-3-(4-pyridin-4-yl-piperazin-1-yl)-1,3-dihydro-indol-2-one] was run?
A: Its pKi is 6.30 to 7.30.

Q: How did the pKi turn out when `COc1ccc(S(=O)(=O)N2C(=O)C(c3ccccc3OC)(N3CCN(c4ccncc4)CC3)c3cc(C#N)ccc32)c(OC)c1` (centres unmarked) [Example 26, 5-Cyano-1-(2,4-dimethoxy-benzenesulphonyl)-3-(2-methoxyphenyl)-3-(4-pyridin-4-yl-piperazin-1-yl)-2,3-dihydro-1H-indol-2-one] was run?
A: Its pKi is 6.30 to 7.30.

Q: `COc1ccc(S(=O)(=O)N2C(=O)C(c3ccccc3OC)(N3C[C@H]4C[C@@H]3CN4c3ccncc3)c3cc(Cl)ccc32)c(OC)c1` (stereo partly drawn) [Example 27, 5-Chloro-1-(2,4-dimethoxy-benzenesulphonyl)-3-(2-methoxyphenyl)-3-((1R,4R)-5-pyridin-4-yl-2,5-diaza-bicyclo[2.2.1]hept-2-yl)-1,3-dihydro-indol-2-one] was tested. Which pKi did it give?
A: Its pKi is 6.30 to 7.30.

Q: With `COc1ccc(S(=O)(=O)N2C(=O)C(c3cc(OC)ccc3OC)(N3CCN(c4ccncc4)CC3)c3cc(OC)ccc32)c(OC)c1` (centres unmarked) [Example 28, 1-(2,4-Dimethoxy-benzenesulphonyl)-3-(2,5-dimethoxyphenyl)-5-methoxy-3-(4-pyridin-4-yl-piperazin-1-yl)-1,3-dihydro-indol-2-one] as the molecule, how does the pKi read?
A: The pKi was > 7.30.

Q: With `COc1ccc(C2(N3CCN(c4ccncc4)CC3)C(=O)N(S(=O)(=O)c3ccc(OC)cc3OC)c3ccc(Cl)cc32)c(OC)c1` (centres unmarked) [Example 30, 5-Chloro-1-(2,4-dimethoxy-benzenesulphonyl)-3-(2,4-dimethoxyphenyl)-3-(4-pyridin-4-yl-piperazin-1-yl)-1,3-dihydro-indol-2-one, HCl salt] as the molecule, how does the pKi read?
A: Its pKi is > 7.30.

Q: How did the pKi turn out when `COc1ccc(S(=O)(=O)N2C(=O)C(c3cccc(OC)c3OC)(N3CCN(c4ccncc4)CC3)c3cc(Cl)ccc32)c(OC)c1` (centres unmarked) [Example 31, 5-Chloro-1-(2,4-dimethoxy-benzenesulphonyl)-3-(2,3-dimethoxyphenyl)-3-(4-pyridin-4-yl-piperazin-1-yl)-1,3-dihydro-indol-2-one, HCl salt] was run?
A: Its pKi is > 7.30.

Q: How did the pKi turn out when `COCc1ccccc1C1(N2CCN(c3ccncc3)CC2)C(=O)N(S(=O)(=O)c2ccc(OC)cc2OC)c2ccc(Cl)cc21` (centres unmarked) [Example 32, 5-Chloro-1-(2,4-dimethoxy-benzenesulphonyl)-3-(2-methoxymethylphenyl)-3-(4-pyridin-4-yl-piperazin-1-yl)-1,3-dihydro-indol-2-one] was run?
A: Its pKi is 6.30 to 7.30.

Q: `CCOc1ccccc1C1(N2CCN(c3ccnc(C)c3)CC2)C(=O)N(S(=O)(=O)c2ccc(OC)cc2OC)c2ccc(C#N)cc21` (centres unmarked) [Example 35, 5-Cyano-1-(2,4-dimethoxy-benzenesulphonyl)-3-(2-ethoxyphenyl)-3-[4-(2-methyl-pyridin-4-yl)-piperazin-1-yl]-2,3-dihydro-1H-indol-2-one] was tested. Which pKi did it give?
A: The pKi was 6.30 to 7.30.

Q: How did the pKi turn out when `CCOc1ccccc1C1(N2CCN(c3ccncc3)CC2)C(=O)N(S(=O)(=O)c2ccc(NC(C)=O)cc2)c2ccc(C#N)cc21` (centres unmarked) [Example 46, N-{4-[5-Cyano-3-(2-ethoxyphenyl)-2-oxo-3-(4-pyridin-4-yl-piperazin-1-yl)-2,3-dihydro-indole-1-sulphonyl]-phenyl}-acetamide] was run?
A: Its pKi is 6.30 to 7.30.

Q: How did the pKi turn out when `CCOc1ccccc1C1(N2CCN(c3ccncc3)CC2)C(=O)N(S(=O)(=O)c2ccc(OC)cc2OC)c2ccc(-c3ccco3)cc21` (centres unmarked) [Example 47, 1-(2,4-Dimethoxy-benzenesulphonyl)-3-(2-ethoxyphenyl)-5-furan-2-yl-3-(4-pyridin-4-yl-piperazin-1-yl)-1,3-dihydro-indol-2-one] was run?
A: Its pKi is 6.30 to 7.30.

Q: `CCOc1ccccc1C1(N2CCN(c3ccncc3)CC2)C(=O)N(S(=O)(=O)c2cccc(N)c2)c2ccc(C#N)cc21` (centres unmarked) [Example 48, 5-Cyano-1-(3-amino-benzenesulphonyl)-3-(2-ethoxyphenyl)-3-(4-pyridin-4-yl-piperazin-1-yl)-2,3-dihydro-1H-indol-2-one] was tested. Which pKi did it give?
A: The pKi was 6.30 to 7.30.

Q: How did the pKi turn out when `CCOc1ccc(OC)cc1C1(N2CCN(c3ccnc(C)c3)CC2)C(=O)N(S(=O)(=O)c2ccc(OC)cc2OC)c2ccc(C#N)cc21` (centres unmarked) [Example 50, 5-Cyano-1-(2,4-dimethoxy-benzenesulphonyl)-3-(2-ethoxy-5-methoxyphenyl)-3-[4-(2-methyl-pyridin-4-yl)-piperazin-1-yl]-2,3-dihydro-1H-indol-2-one] was run?
A: Its pKi is > 7.30.

Q: `CCOc1ccc(OC)cc1C1(N2C[C@@H]3C[C@H]2CN3c2ccncc2)C(=O)N(S(=O)(=O)c2ccc(OC)cc2OC)c2ccc(C#N)cc21` (stereo partly drawn) [Example 52, 5-Cyano-1-(2,4-dimethoxy-benzenesulphonyl)-3-(2-ethoxy-5-methoxyphenyl)-3-((1S,4S)-5-pyridin-4-yl-2,5-diaza-bicyclo[2.2.1]hept-2-yl)-2,3-dihydro-1H-indol-2-one] was tested. Which pKi did it give?
A: Its pKi is > 7.30.

Q: How did the pKi turn out when `COc1ccc(S(=O)(=O)N2C(=O)C(c3cc(OC)ccc3OC(C)C)(N3CCN(c4ccncc4)CC3)c3cc(C#N)ccc32)c(OC)c1` (centres unmarked) [Example 53, 5-Cyano-1-(2,4-dimethoxy-benzenesulphonyl)-3-(2-isopropoxy-5-methoxyphenyl)-3-(4-pyridin-4-yl-piperazin-1-yl)-2,3-dihydro-1H-indol-2-one] was run?
A: Its pKi is 6.30 to 7.30.

Q: How did the pKi turn out when `CCOc1ccc(OC)cc1C1(N2CCN(c3ccncc3)CC2)C(=O)N(S(=O)(=O)c2ccc(OC)cc2OC)c2ccc(C#N)cc21` (centres unmarked) [Example 55, 5-Cyano-1-(2,4-dimethoxy-benzenesulphonyl)-3-(2-ethoxy-5-methoxyphenyl)-3-(4-pyridin-4-yl-piperazin-1-yl)-2,3-dihydro-1H-indol-2-one] was run?
A: Its pKi is > 7.30.

Q: With `CCOc1ccccc1C1(N2CCCN(c3ccncc3)CC2)C(=O)N(S(=O)(=O)c2ccc(OC)cc2OC)c2ccc(C#N)cc21` (centres unmarked) [Example 56, 5-Cyano-1-(2,4-dimethoxy-benzenesulphonyl)-3-(2-ethoxyphenyl)-3-(4-pyridin-4-yl-[1.4]diazepan-1-yl)-2,3-dihydro-1H-indol-2-one] as the molecule, how does the pKi read?
A: The pKi was 6.30 to 7.30.

Q: With `CCOc1cc(F)ccc1C1(N2CCN(c3ccncc3)CC2)C(=O)N(S(=O)(=O)c2ccc(OC)cc2OC)c2ccc(C#N)cc21` (centres unmarked) [Example 57, 5-Cyano-1-(2,4-dimethoxy-benzenesulphonyl)-3-(2-ethoxy-4-fluorophenyl)-3-(4-pyridin-4-yl-piperazin-1-yl)-2,3-dihydro-1H-indol-2-one] as the molecule, how does the pKi read?
A: Its pKi is > 7.30.

Q: With `CCOc1ccc(OC)cc1C1(N2CC3CN(c4ccncc4)CC3C2)C(=O)N(S(=O)(=O)c2ccc(OC)cc2OC)c2ccc(C#N)cc21` (centres unmarked) [Example 58, 5-Cyano-1-(2,4-dimethoxy-benzenesulphonyl)-3-(2-ethoxy-5-methoxyphenyl)-3-(5-pyridin-4-yl-hexahydro-pyrrolo[3,4-c]pyrrol-2-yl)-2,3-dihydro-1H-indol-2-one] as the molecule, how does the pKi read?
A: Its pKi is > 7.30.

Q: How did the pKi turn out when `COc1ccc(S(=O)(=O)N2C(=O)C(c3cc(OC)ccc3OC)(N3CCN(c4ccncc4)CC3)c3cc(C#N)ccc32)c(OC)c1` (centres unmarked) [Example 59, 5-Cyano-1-(2,4-dimethoxy-benzenesulphonyl)-3-(2,5-dimethoxyphenyl)-3-(4-pyridin-4-yl-piperazin-1-yl)-2,3-dihydro-1H-indol-2-one] was run?
A: Its pKi is > 7.30.

Q: How did the pKi turn out when `CCOc1ccc(OC)cc1C1(N2CCCN(c3ccncc3)CC2)C(=O)N(S(=O)(=O)c2ccc(OC)cc2OC)c2ccc(C#N)cc21` (centres unmarked) [Example 60, 5-Cyano-1-(2,4-dimethoxy-benzenesulphonyl)-3-(2-ethoxy-5-methoxyphenyl)-3-(4-pyridin-4-yl-[1.4]diazepan-1-yl)-2,3-dihydro-1H-indol-2-one] was run?
A: The pKi was > 7.30.

Q: `CCOc1ccc(OC)cc1C1(N2CCN(c3ccncc3)CC2)C(=O)N(S(=O)(=O)c2ccc(C#N)cc2)c2ccc(C#N)cc21` (centres unmarked) [Example 61, 5-Cyano-1-(4-cyano-benzenesulphonyl)-3-(2-ethoxy-5-methoxyphenyl)-3-(4-pyridin-4-yl-piperazin-1-yl)-2,3-dihydro-1H-indol-2-one] was tested. Which pKi did it give?
A: The pKi was 6.30 to 7.30.
